Measured values: patent publication US5244905A, “N-substituted cycloalkyl and polycycloalkyl polyhydro-β-carboline-phenylalanine- and phenethylamine derivatives” (Warner-Lambert Company, priority 1991, dated 1993)

Test system: nucleus accumbens
Test: Locomotor activity after intra-accumbens amphetamine
Format: in vivo, rat (male Sprague Dawley (CD) Bradford)
Details: bilateral injection 20 μg into nucleus accumbens
Protocol: The compounds of the instant invention are useful as antipsychotic agents. Compounds are tested for their ability to reduce the effects of intra-accumbens amphetamine in the rat as described hereinafter.
Male Sprague Dawley (CD) Bradford strain rats are used. The rats are housed in groups of five at a temperature of 21°±2° C. on a 12 hour light-dark cycle of lights-on between 07 hours 00 minutes and 20 hours 00 minutes. Rats are fed CRM diet (Labsure) and allowed water ad libitum.
Rats are anesthetized with chloral hydrate (400 mg/kg SC) and placed in a Kopf stereotaxic frame. Chronically indwelling guide cannulae (constructedof stainless steel tubing 0.65 mm diameter held bilaterally in Parspex holders) are implanted using standard stereotaxic techniques to terminate 3.5 mm above the center of the nucleus accumbens (Ant. 0.4, Vert. 0.0, Lat. 1.6) or 5.0 mm above the central nucleus of the amygdala (Ant. 5.8, Vet. -1.8, Lat. ±4.5) (Atlas of De Groot, 1959). […]
Behavioral experiments are conducted between 07 hours 30 minutes and 21 hours 30 minutes in a quiet room maintained at 22°±2° C. […] Interruptions of the light beam are recorded every 5 minutes. […]
The abilities of the compounds of the invention to inhibit the hyperactivity caused by the injection of amphetamine into the nucleus accumbens of the rat is measured.

With `CC(N)Cc1ccccc1` (stereo not shown) [amphetamine] the locomotor activity was “increase in locomotor activity”.
